Source: patent publication US20250101052A1, “COMPOUND FOR EGFR KINASE INHIBITOR, COMPOSITION, AND USE THEREOF” (INNOVATION INSTITUTE FOR ARTIFICIAL INTELLIGENCE IN …, priority 2021, published 2025)
Read-outs that look alike come from different tables or passages of the source.

Key:
[1] = system: BaF3-EGFR^L858R/C797S cells; assay: BaF3 cell proliferation inhibition experiment (CCK-8); format: cell-based; conditions: Ba/F3 EGFR-L858R, read-out: BaF3-EGFR^L858R/C797S (IC50 nM)
Experimental: (§1) A. Cell line: BaF3 cells with stable overexpression of wild-type genes are named BaF3-EGFR^WT, and BaF3 cells with stable overexpression of EGFR^L858R/T790M/C797S EGFR^del19/T790M/C797S EGFR^L858R/C797S and EGFR^del19/C797S mutant genes are named BaF3-EGFR^L858R/T790M/C797S BaF3-EGFR^del19/T790M/C797S BaF3-EGFR^L858R/C797S and BaF3-EGFR^del19/C797S cells, respectively. Mediums:
(§2) a) The medium was preheated in a 37° C. water bath.
(§3) b) The cryopreservation tube was taken from the liquid nitrogen tank, quickly placed in a 37° C. water bath, and melted completely within 1 minute.
(§4) c) The cell suspension was transferred to a 15 mL centrifuge tube containing a 10 mL medium and centrifuged at 1000 rpm for 4 minutes.
(§5) d) The supernatant was discarded, the cells were resuspended in a 1 mL medium and transferred to a […] culture dish containing a 10 mL medium, 20% serum and 50 ng/mL EGF were administered to the first-generation medium, and culture was conducted in a 37° C. and 5% CO2 incubator.
(§6) b) The cells in the culture dish were blown evenly with a 5 mL pipette, and 500 μL of the cells were pipetted out to be inoculated into a new […] culture dish and cultured in a 37° C. and 5% CO2 incubator.
(§7) a) The compound to be tested (10 mM stock solution) was diluted with 100% DMSO to 1 mM, and diluted with a culture solution in a 24-well plate to prepare of a working solution of 2 μM concentration.
(§8) b) The 2 μM working solution was diluted with a triple dilution method to obtain working solutions with approximate concentrations of 2 μM, 600 nM, 200 nM, 60 nM, and 20 nM.
(§9) a) The cells at the logarithmic growth phase were centrifuged at 1000 rpm for 4 minutes, resuspended with a medium (containing 10% serum and 50 ng/mL EGF), and counted.
(§10) b) The cells were inoculated into a 96-well plate with a cell density of 4000 cells/well, and placed in a 37° C. and 5% CO2 incubator for culture for 12 hours.
(§11) a) The prepared compound was added to a 96-well plate, with 100 μL per well. The final concentrations were 1 μM, 300 nM, 100 nM, 30 nM, 10 nM, and 0 nM, and the final concentration of DMSO was 0.2%. A medium served as a blank control.
(§12) b) The cells were placed in 37° C. and 5% CO2 incubator for culture for 72 hours.
(§13) (5) Cell Viability Testing
(§14) a) The 96-well cell culture plate was taken out, and 20 μL of a CCK-8 reagent (Cell Counting Kit-8, Topscience, Catalog No. C0005) was added in the dark.
(§15) b) Mixing well was conducted on a horizontal shaking table at a room temperature at 100 rpm for 5 minutes.
(§16) c) The culture plate was placed in a 37° C. constant-temperature incubator for incubation.
(§17) The data was analyzed using GraphPad Prism 8.0 software to obtain a fitted curve of activity of the compounds. The IC50 of the compounds was fitted from nonlinear regression equation.

BaF3-EGFR^WT cells = assay: as above; format: cell-based; conditions: Mus musculus, BaF3, 72 h, read-out: BaF3-EGFR^WT (IC50 nM)
Experimental: as §1, §2, §3, §4, §5, §6, §7, §8, §9, §10, §11, §12, §13, §14, §15, §16, §17

[2] = system: BaF3-EGFR^del19/C797S cells; assay: as above; format: cell-based; conditions: Mus musculus, read-out: BaF3-EGFR^del19 /C797S (IC50 nM)
Experimental: as §1, §2, §3, §4, §5, §6, §7, §8, §9, §10, §11, §12, §13, §14, §15, §16, §17

[3] = system: BaF3-EGFR^del19/T790M/C797S cells; assay: as above; format: cell-based; conditions: Ba/F3 EGFR-Del19/T790M/C797S, 72 h, read-out: BaF3-EGFR^del19 /T790M/C797S (IC50 nM)
Experimental: as §1, §2, §3, §4, §5, §6, §7, §8, §9, §10, §11, §12, §13, §14, §15, §16, §17

[4] = biological target: EGFR^L858R/T790M/C797S kinase (Homo sapiens (Human), UniProt P00533, C797S/L858R/T790M); assay: EGFR^L858R/T790M/C797S kinase inhibitory activity experiment; format: biochemical; conditions: in vitro
In short: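 Human EGFR L858R/T790M/C797S mutant preincubated 10 min with compound (10-point dilution from 1 μM), then reacted 60 min at room temperature with ATP and kinase substrate 22. Substrate conversion read by Caliper mobility shift. % inhibition normalized to no-enzyme and no-compound wells, with IC50 from variable-slope log(inhibitor) fit.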

Chain of EGFR^L858R/T790M/C797S kinase (P00533 25-1210 T790M/C797S/L858R): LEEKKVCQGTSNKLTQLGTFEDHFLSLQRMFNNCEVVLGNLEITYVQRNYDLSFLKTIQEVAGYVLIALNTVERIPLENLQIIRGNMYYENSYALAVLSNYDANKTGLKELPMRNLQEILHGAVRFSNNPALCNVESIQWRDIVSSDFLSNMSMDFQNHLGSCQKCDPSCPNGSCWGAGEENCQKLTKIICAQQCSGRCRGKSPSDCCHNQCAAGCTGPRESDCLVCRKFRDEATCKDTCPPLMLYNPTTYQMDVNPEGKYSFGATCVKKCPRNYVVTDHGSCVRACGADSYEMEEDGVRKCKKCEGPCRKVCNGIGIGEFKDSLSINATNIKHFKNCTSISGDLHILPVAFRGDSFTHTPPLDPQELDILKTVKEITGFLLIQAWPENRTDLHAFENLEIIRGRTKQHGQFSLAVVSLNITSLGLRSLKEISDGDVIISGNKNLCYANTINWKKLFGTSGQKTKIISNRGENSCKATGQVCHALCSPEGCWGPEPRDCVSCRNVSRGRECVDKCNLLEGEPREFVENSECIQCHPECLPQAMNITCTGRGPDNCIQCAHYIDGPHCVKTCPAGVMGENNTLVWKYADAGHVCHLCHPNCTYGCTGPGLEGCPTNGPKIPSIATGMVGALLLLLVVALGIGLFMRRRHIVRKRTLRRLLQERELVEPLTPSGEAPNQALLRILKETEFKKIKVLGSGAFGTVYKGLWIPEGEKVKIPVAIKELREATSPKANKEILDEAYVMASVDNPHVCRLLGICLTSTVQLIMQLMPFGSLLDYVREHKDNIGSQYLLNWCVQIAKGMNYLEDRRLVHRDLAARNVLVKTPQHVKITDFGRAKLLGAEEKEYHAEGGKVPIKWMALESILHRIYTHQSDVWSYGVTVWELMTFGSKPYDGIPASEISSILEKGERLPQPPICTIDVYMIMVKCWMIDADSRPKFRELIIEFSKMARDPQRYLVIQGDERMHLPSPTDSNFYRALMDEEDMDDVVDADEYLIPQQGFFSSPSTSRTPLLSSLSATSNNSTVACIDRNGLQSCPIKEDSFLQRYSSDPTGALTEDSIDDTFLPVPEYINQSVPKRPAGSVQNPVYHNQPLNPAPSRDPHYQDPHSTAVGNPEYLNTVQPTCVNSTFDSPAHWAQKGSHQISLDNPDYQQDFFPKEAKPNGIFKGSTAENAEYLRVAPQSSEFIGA

IC50 [4]	IC50 ([1]; cell proliferation, 72 hours)	IC50 ([2]; BaF3, cell proliferation, 72 hours)	Compound	IC50 ([1]; 72 h)	IC50 (BaF3-EGFR^WT cells)	IC50 ([2]; BaF3, 72 h)	IC50 [3]
–	–	–	C=CC(=O)Nc1cc(Nc2nccc(-c3cn(C)c4ccccc34)n2)c(OC)cc1N(C)CCN(C)C [AZD9291, reference compound]	> 1000 nM	76.1 nM	> 1000 nM	614 nM
0.000201 µM	166 nM	193 nM	CCc1cc(Nc2ncc(Cl)c(Nc3ccc(C)c(C)c3P(C)(C)=O)n2)c(OC)cc1N1CCC(N2CC3CC2CN3C)CC1 (stereo not shown) [Compound 54, (6-((5-Chloro-2-((5-ethyl-2-methoxy-4-(4-(5-methyl-2,5-diazadicyclo[2.2.1]heptane-2-yl)piperidin-1-yl)phenyl)amino)pyrimidin-4-yl)amino)-2,3-dimethylphenyl)dimethylphosphine oxide]	–	–	–	–
